Experimental data taken from publication PMC9516332 (Frontiers in Oncology, 2022).
Like-named read-outs stand apart in the source and are kept apart here.

How the values were obtained:
[1] = target: panel of 255 wild-type kinases (Homo sapiens, UniProt O00311); experiment: Kinase panel profiling at 1 µmol/L (MSA or IMAP), percentage inhibition; format: biochemical; conditions: CDC7/ASK kinase assay; 1 µmol/L single concentration; read-out: %-inhibition CDC7/ASK
[2] = target: panel of 255 wild-type kinases (Homo sapiens, UniProt P42684); experiment: as above; format: biochemical; conditions: ARG kinase assay; 1 µmol/L single concentration; read-out: %-inhibition ARG
AP-1060 (ETV6-NTRK3) = experiment: Cell viability assay; conditions: read-out: IC50 in cell proliferation assay
134 cancer cell lines = experiment: Cell viability assay (ATPlite, 72 hours), IC50 on cancer cell line panel

C[C@H]1Oc2cc(cnc2N)-c2c(nn(C)c2C#N)CN(C)C(=O)c2ccc(F)cc21 [lorlatinib]
inhibition at 1 µM [1]: -2% | inhibition at 1 µM [2]: 1.49% | IC50 (AP-1060 (ETV6-NTRK3)): 10.7 µM | IC50 (134 cancer cell lines; HEC-6, read-out: IC50 in cell proliferation assay): > 31.6 µM | IC50 (134 cancer cell lines; Homo sapiens, 769-P, read-out: IC50 in cell proliferation assay): > 31.6 µM | IC50 (134 cancer cell lines; Homo sapiens, 786-0, read-out: IC50 in cell proliferation assay): > 31.6 µM | IC50 (134 cancer cell lines; Homo sapiens, A 172, read-out: IC50 in cell proliferation assay): > 31.6 µM | IC50 (134 cancer cell lines; Homo sapiens, A204, read-out: IC50 in cell proliferation assay): > 31.6 µM | IC50 (134 cancer cell lines; Homo sapiens, A498, read-out: IC50 in cell proliferation assay): > 31.6 µM | IC50 (134 cancer cell lines; Homo sapiens, A549, read-out: IC50 in cell proliferation assay): 2.3 µM | IC50 (134 cancer cell lines; Homo sapiens, A704, read-out: IC50 in cell proliferation assay): > 31.6 µM | IC50 (134 cancer cell lines; Homo sapiens, A-375, read-out: IC50 in cell proliferation assay): 18.8 µM | IC50 (134 cancer cell lines; Homo sapiens, A-427, read-out: IC50 in cell proliferation assay): 27.4 µM | IC50 (134 cancer cell lines; Homo sapiens, ACHN, read-out: IC50 in cell proliferation assay): > 31.6 µM | IC50 (134 cancer cell lines; Homo sapiens, AN3-CA, read-out: IC50 in cell proliferation assay): > 31.6 µM | IC50 (134 cancer cell lines; Homo sapiens, ASPC1, read-out: IC50 in cell proliferation assay): 28.2 µM | IC50 (134 cancer cell lines; Homo sapiens, AU565, read-out: IC50 in cell proliferation assay): > 31.6 µM | IC50 (134 cancer cell lines; Homo sapiens, BT-20, read-out: IC50 in cell proliferation assay): > 31.6 µM | IC50 (134 cancer cell lines; Homo sapiens, BT-474, read-out: IC50 in cell proliferation assay): > 31.6 µM | IC50 (134 cancer cell lines; Homo sapiens, BT-549, read-out: IC50 in cell proliferation assay): > 31.6 µM | IC50 (134 cancer cell lines; Homo sapiens, BXPC-3, read-out: IC50 in cell proliferation assay): 0.049 µM | IC50 (134 cancer cell lines; Homo sapiens, C-33-A, read-out: IC50 in cell proliferation assay): > 31.6 µM | IC50 (134 cancer cell lines; Homo sapiens, CAL-27, read-out: IC50 in cell proliferation assay): > 31.6 µM | IC50 (134 cancer cell lines; Homo sapiens, CCF-STTG1, read-out: IC50 in cell proliferation assay): > 31.6 µM | IC50 (134 cancer cell lines; Homo sapiens, CCRF-CEM, read-out: IC50 in cell proliferation assay): > 31.6 µM | IC50 (134 cancer cell lines; Homo sapiens, COLO 205, read-out: IC50 in cell proliferation assay): 11.9 µM | IC50 (134 cancer cell lines; Homo sapiens, COLO-829, read-out: IC50 in cell proliferation assay): > 31.6 µM | IC50 (134 cancer cell lines; Homo sapiens, DLD-1, read-out: IC50 in cell proliferation assay): > 31.6 µM | IC50 (134 cancer cell lines; Homo sapiens, DU-145, read-out: IC50 in cell proliferation assay): 25.9 µM | IC50 (134 cancer cell lines; Homo sapiens, DU-4475, read-out: IC50 in cell proliferation assay): 25.9 µM | IC50 (134 cancer cell lines; Homo sapiens, Daoy, read-out: IC50 in cell proliferation assay): > 31.6 µM | IC50 (134 cancer cell lines; Homo sapiens, DoTc2-4510, read-out: IC50 in cell proliferation assay): 0.024 µM | IC50 (134 cancer cell lines; Homo sapiens, EOL1, read-out: IC50 in cell proliferation assay): 9.05 µM | IC50 (134 cancer cell lines; Homo sapiens, FaDu, read-out: IC50 in cell proliferation assay): > 31.6 µM | IC50 (134 cancer cell lines; Homo sapiens, G-361, read-out: IC50 in cell proliferation assay): > 31.6 µM | IC50 (134 cancer cell lines; Homo sapiens, HCC827, read-out: IC50 in cell proliferation assay): 17.1 µM | IC50 (134 cancer cell lines; Homo sapiens, HCC4006, read-out: IC50 in cell proliferation assay): 17.8 µM | IC50 (134 cancer cell lines; Homo sapiens, HCT-15, read-out: IC50 in cell proliferation assay): > 31.6 µM | IC50 (134 cancer cell lines; Homo sapiens, HCT-116, read-out: IC50 in cell proliferation assay): 23.8 µM | IC50 (134 cancer cell lines; Homo sapiens, HEC-1, read-out: IC50 in cell proliferation assay): 9.24 µM | IC50 (134 cancer cell lines; Homo sapiens, HEC-1B, read-out: IC50 in cell proliferation assay): > 31.6 µM | IC50 (134 cancer cell lines; Homo sapiens, HL-60, read-out: IC50 in cell proliferation assay): 28.1 µM | IC50 (134 cancer cell lines; Homo sapiens, HT, read-out: IC50 in cell proliferation assay): > 31.6 µM | IC50 (134 cancer cell lines; Homo sapiens, HT-1080, read-out: IC50 in cell proliferation assay): > 31.6 µM | IC50 (134 cancer cell lines; Homo sapiens, Hs746T, read-out: IC50 in cell proliferation assay): 9.43 µM | IC50 (134 cancer cell lines; Homo sapiens, Hs-578T, read-out: IC50 in cell proliferation assay): > 31.6 µM | IC50 (134 cancer cell lines; Homo sapiens, HuTu80, read-out: IC50 in cell proliferation assay): 7.5 µM | IC50 (134 cancer cell lines; Homo sapiens, J82, read-out: IC50 in cell proliferation assay): > 31.6 µM | IC50 (134 cancer cell lines; Homo sapiens, Jurkat E6.1, read-out: IC50 in cell proliferation assay): > 31.6 µM | IC50 (134 cancer cell lines; Homo sapiens, K562, read-out: IC50 in cell proliferation assay): 9.61 µM | IC50 (134 cancer cell lines; Homo sapiens, KATO III, read-out: IC50 in cell proliferation assay): > 31.6 µM | IC50 (134 cancer cell lines; Homo sapiens, KG-1, read-out: IC50 in cell proliferation assay): 9.21 µM | IC50 (134 cancer cell lines; Homo sapiens, KLE, read-out: IC50 in cell proliferation assay): > 31.6 µM | IC50 (134 cancer cell lines; Homo sapiens, KMS-11, read-out: IC50 in cell proliferation assay): 17.7 µM | IC50 (134 cancer cell lines; Homo sapiens, KU812, read-out: IC50 in cell proliferation assay): > 31.6 µM | IC50 (134 cancer cell lines; Homo sapiens, Kasumi 1, read-out: IC50 in cell proliferation assay): > 31.6 µM | IC50 (134 cancer cell lines; Homo sapiens, LC-2-ad, read-out: IC50 in cell proliferation assay): 20.4 µM | IC50 (134 cancer cell lines; Homo sapiens, LNCaP-Clone-FGC, read-out: IC50 in cell proliferation assay): > 31.6 µM | IC50 (134 cancer cell lines; Homo sapiens, LS174T, read-out: IC50 in cell proliferation assay): 14.2 µM
